What all share (test): combination Emax (second highest fraction inhibited in the dose matrix, 72 h); higher = more inhibition; extreme values may be limits of the assay
The subject of experiment [1] is COLO-679 (Melanoma). In a few lines: (§1)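 Bliss excess equals the observed combination effect minus the expected value EA + EB − EA·EB, where EA and EB are the effects of each agent alone. Combination Emax is the second-highest inhibition within the matrix. Inhibition was scaled from CellTiter-Glo 2.0 luminescence, with 0 set by vehicle wells and 1 by blank wells, after 72 hours of two-drug dosing of cells plated in 1536-well plates.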

The subject of experiment [2] is EFO-21 (Ovarian Carcinoma). In a few lines:
as §1

Experiment [3] has as its system G-401 (Other Solid Carcinomas). In a few lines: as §1
The subject of experiment [4] is HAL-01 (B-Lymphoblastic Leukemia). The gist of the method:
as §1

For experiment [5], the system named is HCC1500 (Breast Carcinoma). The gist of the method: as §1
Experiment [6] relates to HCC1937 (Breast Carcinoma). In a few lines:
as §1

The test system of experiment [7] is Hey (Ovarian Carcinoma). In a few lines:
as §1

Experiment [8] has as its system KGN (Other Solid Carcinomas). In a few lines: as §1
Experiment [9] has as its system KMRC-1 (Kidney Carcinoma). In a few lines: as §1
Experiment [10] deals with MDA-MB-453 (Breast Carcinoma). In a few lines: as §1
Experiment [11] deals with MOLT-4 (T-Lymphoblastic Leukemia). The gist of the method:
as §1

Experiment [12] deals with NCI-H1355 (Lung Adenocarcinoma). The gist of the method: as §1
For experiment [13], the system named is NCI-H1838 (Lung Adenocarcinoma). The gist of the method:
as §1

Experiment [14] deals with NCI-H1993 (Lung Adenocarcinoma). In a few lines:
as §1

In experiment [15] the test system is OE33 (Esophageal Adenocarcinoma). In a few lines: as §1
Experiment [16] relates to SK-LU-1 (Lung Adenocarcinoma). The gist of the method:
as §1

For experiment [17], the system named is SKN (Other Solid Carcinomas). In a few lines:
as §1

In experiment [18] the test system is SNU-387 (Hepatocellular Carcinoma). In a few lines: as §1
Experiment [19] relates to MOG-G-UVW (Low Grade Glioma). The gist of the method: as §1
Experiment [20] relates to COLO-668 (Small Cell Lung Carcinoma). In a few lines: as §1

In the case of `CN(CCO)CC[C@H](CSc1ccccc1)Nc1ccc(S(=O)(=O)NC(=O)c2ccc(N3CCC([C@@H](O)c4ccccc4-c4ccc(Cl)cc4)CC3)cc2)cc1S(=O)(=O)C(F)(F)F` [AZD4320] + C=CCn1c(=O)c2cnc(Nc3ccc(N4CCN(C)CC4)cc3)nc2n1-c1cccc(C(C)(C)O)n1 [AZD1775] (first compound max 1 µM, partner max 1 µM), the “combination Emax” value in experiment [1] worked out at 0.521; in [2], 0.53; in experiment [3] it was 0.901; in experiment [4] it was 1; in experiment [5] it was 0.995; in experiment [6] it was 0.791. Further, the “combination Emax” value is 0.673 in experiment [7]; 0.784 in experiment [8]; 0.278 in [9]; 0.285 in [10]; 1 in [11]; 0.594 in experiment [12]. Besides, the “combination Emax” value stood at 0.541 in experiment [13]; 0.927 in [14]; 0.492 in [15]; 0.542 in experiment [16]; 0.586 in experiment [17]; 0.681 in [18].

Turning to `CN(CCO)CC[C@H](CSc1ccccc1)Nc1ccc(S(=O)(=O)NC(=O)c2ccc(N3CCC([C@@H](O)c4ccccc4-c4ccc(Cl)cc4)CC3)cc2)cc1S(=O)(=O)C(F)(F)F` [AZD4320] + CN(C)CCCOc1ccc(-c2ccc3ncc4c(c3c2)n(C2CCOCC2)c(=O)n4C)cn1 [AZD0156] (first compound max 1 µM, 7x7, partner max 1 µM), the “combination Emax” value amounted to 0.162 in experiment [1]; 0.179 in experiment [2]; 0.266 in experiment [3]; 0.853 in experiment [4]; 0.998 in [5]; 0.439 in experiment [6]. Also, the “combination Emax” value in experiment [7] is 0.256; in experiment [8] it was 0.425; in experiment [9], 0.2; in experiment [10], 0.175; in experiment [19], 0.135; in experiment [11] it was 0.976. Besides, the “combination Emax” value is 0.162 in [12]; 0.225 in experiment [13]; 0.742 in experiment [14]; 0.0749 in [15]; 0.322 in experiment [16]; 0.127 in experiment [17]. Moreover, the “combination Emax” value in [18] turned out to be 0.183.

As to `CS(=O)(=O)CCNCc1ccc(-c2ccc3ncnc(Nc4ccc(OCc5cccc(F)c5)c(Cl)c4)c3c2)o1` [Lapatinib] + NC1(c2ccc(-c3nc4ccn5c(=O)[nH]nc5c4cc3-c3ccccc3)cc2)CCC1 [MK-2206] (first compound max 10 µM, 7x7, partner max 10 µM), the “combination Emax” value in experiment [20] was 0.508; in experiment [1], 0.618; in experiment [2] it was 0.321; in experiment [4], 0.951; in experiment [5], 0.901; in experiment [6], 0.841. Besides, the “combination Emax” value in experiment [8] is 0.85; in experiment [9], 0.792; in [10], 0.801; in experiment [19], 0.648; in [11], 0.938; in experiment [12], 0.286. Further, the “combination Emax” value was 0.348 in experiment [13]; 0.68 in [14]; 0.849 in experiment [15]; 0.335 in experiment [16]; 0.658 in experiment [17]; 0.873 in experiment [18].

`O=C(c1cc(Cc2n[nH]c(=O)c3ccccc23)ccc1F)N1CCN(C(=O)C2CC2)CC1` [Olaparib] + COc1nnc2ccc(N3CCC(c4ccc(OCCN5CCN(C)C(=O)[C@H]5C)cc4)CC3)nn12 [AZD5153] (first compound max 10 µM, 7x7, partner max 1 µM): the “combination Emax” value in experiment [20] was 0.323; in [1], 0.321; in experiment [2], 0.353; in [4], 0.801; in [8], 0.712; in [9] it was 0.277. Moreover, the “combination Emax” value was 0.664 in experiment [10]; 0.641 in experiment [19]; 0.591 in experiment [11]; 0.335 in experiment [12]; 0.459 in experiment [14]; 0.224 in [15]. The entries for the “combination Emax” value in experiment [16], in [17] and in [18] were 0.332, 0.553 and 0.419, respectively.

`O=C(c1cc(Cc2n[nH]c(=O)c3ccccc23)ccc1F)N1CCN(C(=O)C2CC2)CC1` [Olaparib] + Cc1c2c(nn1C)CSCc1cc(n(C)n1)CSc1cc(c3ccccc3c1)OCCCc1c(C(=O)O)n(C)c3c-2c(Cl)ccc13 [AZD5991] (first compound max 10 µM, 7x7, partner max 1 µM): the “combination Emax” value amounted to 0.0291 in experiment [20]; 0.119 in experiment [1]; 0.117 in experiment [2]; 0.269 in experiment [4]; 0.162 in [8]; 0.0973 in [9]. For the same molecule, the “combination Emax” value in experiment [10] was determined as 0.341; in experiment [19] it was 0.408; in [11] it was 0.878; in experiment [12], 0.146; in experiment [14], 0.124; in experiment [15], 0.0347. The “combination Emax” value in experiment [16] came to 0.216; in experiment [17], 0.126; in experiment [18], 0.427.

For `Cc1nc(-c2cn3c(n2)-c2ccc(-c4cnn(C(C)(C)C(N)=O)c4)cc2OCC3)n(C(C)C)n1` [Taselisib] + O=C(Nc1ccc2[nH]nc(-c3ccncc3)c2c1)[C@@H]1CCN(CC(=O)N2CCN(c3ccc(-c4ncccn4)cc3)CC2)C1 [SCH772984] (first compound max 10 µM, 7x7, partner max 5 µM), the “combination Emax” value in experiment [20] was found to be 0.855; in experiment [1] it was 0.851; in [2], 0.409; in [4] it was 0.78; in experiment [8] it was 0.816; in [9] it was 0.543. Further, the “combination Emax” value in experiment [10] was 0.721; in experiment [19], 0.884; in [11], 0.837; in experiment [12], 0.656; in experiment [14], 0.886; in experiment [15] it was 0.831. For the same molecule, the “combination Emax” value in experiment [16] was determined as 0.516; in experiment [17], 0.735; in experiment [18] it was 0.996.

Turning to `CC1(C)CCC(CN2CCN(c3ccc(C(=O)NS(=O)(=O)c4ccc(NCC5CCOCC5)c([N+](=O)[O-])c4)c(Oc4cnc5[nH]ccc5c4)c3)CC2)=C(c2ccc(Cl)cc2)C1` [Venetoclax] + CS(=O)(=O)CCNCc1ccc(-c2ccc3ncnc(Nc4ccc(OCc5cccc(F)c5)c(Cl)c4)c3c2)o1 [Lapatinib] (first compound max 1 µM, 7x7, partner max 10 µM), the “combination Emax” value in [20] amounted to 0.282; in experiment [1], 0.0296; in experiment [2], 0.153; in experiment [4], 0.968; in [8], 0.4; in experiment [9], 0.595. Besides, the “combination Emax” value in experiment [10] was determined as 0.419; in experiment [19], 0.213; in experiment [11] it was 0.502; in [12] it was 0.16; in [14] it was 0.262; in experiment [15], 0.485. The figures for the “combination Emax” value in experiment [16], in [17] and in experiment [18] were 0.183, 0.196 and 0.078, respectively.
